In patent publication US9902702B2, “Spirocycloheptanes as inhibitors of rock” (BRISTOL-MYERS SQUIBB COMPANY, priority 2014, dated 2018) one finds IC50 data, which are given here for 30 compounds.

Chain of ROCK2 (O75116 whole entry, species assumed): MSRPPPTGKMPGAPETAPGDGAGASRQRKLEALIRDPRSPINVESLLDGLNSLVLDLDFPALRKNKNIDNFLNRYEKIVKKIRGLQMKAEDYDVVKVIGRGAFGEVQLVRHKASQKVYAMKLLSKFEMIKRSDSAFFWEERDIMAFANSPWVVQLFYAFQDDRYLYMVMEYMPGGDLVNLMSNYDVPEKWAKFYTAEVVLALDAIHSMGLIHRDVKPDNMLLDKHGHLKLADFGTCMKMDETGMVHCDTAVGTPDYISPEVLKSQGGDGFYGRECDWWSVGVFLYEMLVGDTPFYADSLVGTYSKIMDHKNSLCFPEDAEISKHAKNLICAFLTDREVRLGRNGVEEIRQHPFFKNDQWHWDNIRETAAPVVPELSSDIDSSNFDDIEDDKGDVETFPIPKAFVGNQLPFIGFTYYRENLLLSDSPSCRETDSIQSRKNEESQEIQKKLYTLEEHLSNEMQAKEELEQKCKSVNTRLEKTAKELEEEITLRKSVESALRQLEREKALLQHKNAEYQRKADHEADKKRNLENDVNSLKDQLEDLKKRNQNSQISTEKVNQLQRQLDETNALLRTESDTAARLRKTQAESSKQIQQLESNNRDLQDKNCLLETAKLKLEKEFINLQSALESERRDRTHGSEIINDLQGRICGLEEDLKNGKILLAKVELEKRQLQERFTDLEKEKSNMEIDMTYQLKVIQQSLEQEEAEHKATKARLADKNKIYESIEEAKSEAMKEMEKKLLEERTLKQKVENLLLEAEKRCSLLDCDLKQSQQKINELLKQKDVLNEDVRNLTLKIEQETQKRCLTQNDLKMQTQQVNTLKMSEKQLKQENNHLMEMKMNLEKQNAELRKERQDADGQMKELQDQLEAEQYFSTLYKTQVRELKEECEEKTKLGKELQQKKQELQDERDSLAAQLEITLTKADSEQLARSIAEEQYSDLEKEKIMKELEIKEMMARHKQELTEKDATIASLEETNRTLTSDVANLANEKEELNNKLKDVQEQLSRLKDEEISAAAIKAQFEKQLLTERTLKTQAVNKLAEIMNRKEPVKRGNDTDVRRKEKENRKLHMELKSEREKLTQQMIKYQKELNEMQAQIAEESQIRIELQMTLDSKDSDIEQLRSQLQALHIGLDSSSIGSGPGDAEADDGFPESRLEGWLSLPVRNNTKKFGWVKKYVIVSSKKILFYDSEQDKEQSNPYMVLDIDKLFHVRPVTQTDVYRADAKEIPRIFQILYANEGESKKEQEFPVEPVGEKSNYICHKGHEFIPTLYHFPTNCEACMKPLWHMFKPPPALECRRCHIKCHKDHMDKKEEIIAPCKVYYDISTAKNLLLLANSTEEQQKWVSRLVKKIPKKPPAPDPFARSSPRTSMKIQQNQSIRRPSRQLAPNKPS

This assay concerns the target ROCK2 (Homo sapiens, UniProt O75116). Briefly: ROCK assay: phosphorylation of FITC peptide substrate, LABCHIP 3000 mobility shift. It is filed as biochemical. The following applies: 5 μM ATP, 1.5 μM peptide substrate; read-out: ROCK2 Activity (ROCK IC50 range). The essentials: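 Rho kinase variant phosphorylates 1.5 μM FITC-AHA-AKRRRLSSLRA-OH with 5 μM ATP in 20 mM HEPES pH 7.5, 20 mM MgCl2, 0.015% Brij-35, 4 mM DTT, DMSO <2%. EDTA stops the reaction, and phospho and non-phospho peptides are resolved by LabChip 3000 mobility shift. IC50 from dose-response curve fit.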
Usually IC50 stands for the concentration that gives 50% inhibition. Turning to `[H][C@]1(c2n[nH]c(=O)c3ccccc32)C[C@]2(C[C@@H](NC(=O)c3c[nH]c4ccccc34)C2)C1` (stereo partly drawn) [Example 300, N-((aR)-6-(4-oxo-3,4-dihydrophthalazin-1-yl)spiro[3.3]heptan-2-yl)-1H-indole-3-carboxamide], the IC50 lay within 5.1 to 15 nM.

Regarding `[H][C@]1(c2n[nH]c(=O)c3ccccc32)C[C@]2(C[C@@H](NC(=O)c3cc4cccc(Cl)c4n3C)C2)C1` (stereo partly drawn) [Example 301, 7-chloro-1-methyl-N-((aR)-6-(4-oxo-3,4-dihydrophthalazin-1-yl)spiro[3.3]heptan-2-yl)-1H-indole-2-carboxamide], the IC50 was in the range of 2.01 to 5 nM.

`[H][C@]1(c2n[nH]c(=O)c3ccccc32)C[C@]2(C[C@@H](NC(=O)c3cc4c(Cl)ccc(C)c4[nH]3)C2)C1` (stereo partly drawn) [Example 302, 4-chloro-7-methyl-N-((aR)-6-(4-oxo-3,4-dihydrophthalazin-1-yl)spiro[3.3]heptan-2-yl)-1H-indole-2-carboxamide]: the IC50 is 0.2 to 2 nM.

As for `[H][C@]1(c2n[nH]c(=O)c3ccccc32)C[C@]2(C[C@@H](NC(=O)c3cc4nccnc4s3)C2)C1` (stereo partly drawn) [Example 303, N-((aR)-6-(4-oxo-3,4-dihydrophthalazin-1-yl)spiro[3.3]heptan-2-yl)thieno[2,3-b]pyrazine-6-carboxamide], the IC50 fell in the range of 5.1 to 15 nM.

In the case of `[H][C@]1(c2n[nH]c(=O)c3ccccc32)C[C@]2(C[C@@H](NC(=O)c3cnn4cccc(Br)c34)C2)C1` (stereo partly drawn) [Example 304, 4-bromo-N-((aR)-6-(4-oxo-3,4-dihydrophthalazin-1-yl)spiro[3.3]heptan-2-yl)pyrazolo[1,5-a]pyridine-3-carboxamide], the IC50 was in the range of 15.1 to 100 nM.

As to `[H][C@]1(c2n[nH]c(=O)c3ccccc32)C[C@]2(C[C@@H](NC(=O)c3nc4ccc(Cl)cc4[nH]3)C2)C1` (stereo partly drawn) [Example 305, 6-chloro-N-((aR)-6-(4-oxo-3,4-dihydrophthalazin-1-yl)spiro[3.3]heptan-2-yl)-1H-benzo[d] imidazole-2-carboxamide], the IC50 lay in the range of 15.1 to 100 nM.

As for `[H][C@]1(c2n[nH]c(=O)c3ccccc32)C[C@]2(C[C@@H](NC(=O)c3cc4cc(Cl)ccc4n3C)C2)C1` (stereo partly drawn) [Example 306, 5-chloro-1-methyl-N-((aR)-6-(4-oxo-3,4-dihydrophthalazin-1-yl)spiro[3.3]heptan-2-yl)-1H-indole-2-carboxamide], the IC50 lay within 5.1 to 15 nM.

In the case of `[H][C@]1(c2n[nH]c(=O)c3ccccc32)C[C@]2(C[C@@H](NC(=O)c3ccc4c(c3)ncn4C(C)C)C2)C1` (stereo partly drawn) [Example 307, 1-isopropyl-N-((aR)-6-(4-oxo-3,4-dihydrophthalazin-1-yl)spiro[3.3]heptan-2-yl)-1H-benzo[d] imidazole-5-carboxamide], the IC50 was 5.1 to 15 nM.

With `[H][C@]1(c2n[nH]c(=O)c3ccccc32)C[C@]2(C[C@@H](NC(=O)c3ccc4[nH]cnc4c3)C2)C1` (stereo partly drawn) [Example 308, N-((aR)-6-(4-oxo-3,4-dihydrophthalazin-1-yl)spiro[3.3]heptan-2-yl)-1H-benzo[d] imidazole-5-carboxamide], the IC50 was 5.1 to 15 nM.

Turning to `[H][C@]1(c2n[nH]c(=O)c3ccccc32)C[C@]2(C[C@@H](NC(=O)c3ccc4[nH]c(C)nc4c3)C2)C1` (stereo partly drawn) [Example 309, 2-methyl-N-((aR)-6-(4-oxo-3,4-dihydrophthalazin-1-yl)spiro[3.3]heptan-2-yl)-1H-benzo[d] imidazole-5-carboxamide], the IC50 was in the range of 15.1 to 100 nM.

As to `O=C(NC1CC2(C1)CC(c1n[nH]c(=O)c3ccccc13)C2)c1cnc2[nH]cnc2c1` [Example 310, N-((aR)-6-(4-oxo-3,4-dihydrophthalazin-1-yl)spiro[3.3]heptan-2-yl)-3H-imidazo[4,5-b]pyridine-6-carboxamide], the IC50 was 15.1 to 100 nM.

`[H][C@]1(c2n[nH]c(=O)c3ccccc32)C[C@]2(C[C@@H](NC(=O)c3ccc(NC=O)c(O)c3)C2)C1` (stereo partly drawn) [Example 311, 4-formamido-3-hydroxy-N-((aR)-6-(4-oxo-3,4-dihydrophthalazin-1-yl)spiro[3.3]heptan-2-yl)benzamide]: the half-maximal inhibitory concentration (IC50) lay within 5.1 to 15 nM.

Take `[H][C@]1(c2n[nH]c(=O)c3ccccc32)C[C@]2(C[C@@H](NC(=O)c3cc4cccnc4[nH]3)C2)C1` (stereo partly drawn) [Example 312, N-((aR)-6-(4-oxo-3,4-dihydrophthalazin-1-yl)spiro[3.3]heptan-2-yl)-1H-pyrrolo[2,3-b]pyridine-2-carboxamide]: the IC50 lay within 5.1 to 15 nM.

As to `[H][C@]1(c2n[nH]c(=O)c3ccccc32)C[C@]2(C[C@@H](NC(=O)c3cc4ccc(Cl)cc4s3)C2)C1` (stereo partly drawn) [Example 313, 6-chloro-N-((aR)-6-(4-oxo-3,4-dihydrophthalazin-1-yl)spiro[3.3]heptan-2-yl)benzo[b] thiophene-2-carboxamide], the IC50 is 5.1 to 15 nM.

As for `[H][C@]1(c2n[nH]c(=O)c3ccccc32)C[C@]2(C[C@@H](NC(=O)c3cc4ccc(OC)cc4n3C)C2)C1` (stereo partly drawn) [Example 314, 6-methoxy-1-methyl-N-((aR)-6-(4-oxo-3,4-dihydrophthalazin-1-yl)spiro[3.3]heptan-2-yl)-1H-indole-2-carboxamide], the 50% inhibitory concentration (IC50) lay in the range of 5.1 to 15 nM.

Take `[H][C@]1(c2n[nH]c(=O)c3ccccc32)C[C@]2(C[C@@H](NC(=O)c3ccc4nc(C)oc4c3)C2)C1` (stereo partly drawn) [Example 315, 2-methyl-N-((aR)-6-(4-oxo-3,4-dihydrophthalazin-1-yl)spiro[3.3]heptan-2-yl)benzo[d] oxazole-6-carboxamide]: the IC50 is 15.1 to 100 nM.

With `[H][C@]1(c2n[nH]c(=O)c3ccccc32)C[C@]2(C[C@@H](NC(=O)c3ccc4cn[nH]c4c3)C2)C1` (stereo partly drawn) [Example 316, N-((aR)-6-(4-oxo-3,4-dihydrophthalazin-1-yl)spiro[3.3]heptan-2-yl)-1H-indazole-6-carboxamide], the IC50 was in the range of 5.1 to 15 nM.

For the compound `[H][C@]1(c2n[nH]c(=O)c3ccccc32)C[C@]2(C[C@@H](NC(=O)c3ccc4c(c3)ncn4C)C2)C1` (stereo partly drawn) [Example 317, 1-methyl-N-((aR)-6-(4-oxo-3,4-dihydrophthalazin-1-yl)spiro[3.3]heptan-2-yl)-1H-benzo[d] imidazole-5-carboxamide], the IC50 fell in the range of 5.1 to 15 nM.

Regarding `[H][C@]1(c2n[nH]c(=O)c3ccccc32)C[C@]2(C[C@@H](NC(=O)c3cnc4ccccn34)C2)C1` (stereo partly drawn) [Example 318, N-((aR)-6-(4-oxo-3,4-dihydrophthalazin-1-yl)spiro[3.3]heptan-2-yl)imidazo[1,2-a]pyridine-3-carboxamide], the IC50 lay within 5.1 to 15 nM.

Regarding `[H][C@]1(c2n[nH]c(=O)c3ccccc32)C[C@]2(C[C@@H](NC(=O)c3cc4cc(OCc5ccccc5)ccc4[nH]3)C2)C1` (stereo partly drawn) [Example 319, 5-(benzyloxy)-N-((aR)-6-(4-oxo-3,4-dihydrophthalazin-1-yl)spiro[3.3]heptan-2-yl)-1H-indole-2-carboxamide], the IC50 lay in the range of 15.1 to 100 nM.

Turning to `[H][C@]1(c2n[nH]c(=O)c3ccccc32)C[C@]2(C[C@@H](NC(=O)c3cc4ccc(F)cc4[nH]3)C2)C1` (stereo partly drawn) [Example 320, 6-fluoro-N-((aR)-6-(4-oxo-3,4-dihydrophthalazin-1-yl)spiro[3.3]heptan-2-yl)-1H-indole-2-carboxamide], the IC50 lay within 5.1 to 15 nM.

For the compound `[H][C@]1(c2n[nH]c(=O)c3ccccc32)C[C@]2(C[C@@H](NC(=O)C3CCc4ccccc43)C2)C1` (stereo partly drawn) [Example 321, N-((aR)-6-(4-oxo-3,4-dihydrophthalazin-1-yl)spiro[3.3]heptan-2-yl)-2,3-dihydro-1H-indene-1-carboxamide], the IC50 fell in the range of 100 to 2100 nM.

`[H][C@]1(c2n[nH]c(=O)c3ccccc32)C[C@]2(C[C@@H](NC(=O)c3cc4cccc(C)c4[nH]3)C2)C1` (stereo partly drawn) [Example 322, 7-methyl-N-((aR)-6-(4-oxo-3,4-dihydrophthalazin-1-yl)spiro[3.3]heptan-2-yl)-1H-indole-2-carboxamide]: the IC50 fell in the range of 2.01 to 5 nM.

In the case of `[H][C@]1(c2n[nH]c(=O)c3ccccc32)C[C@]2(C[C@@H](NC(=O)C3NCc4ccccc43)C2)C1` (stereo partly drawn) [Example 323, N-((aR)-6-(4-oxo-3,4-dihydrophthalazin-1-yl)spiro[3.3]heptan-2-yl)isoindoline-1-carboxamide], the IC50 was 100 to 2100 nM.

As to `O=C(N[C@H]1CC2(C1)C[C@H](c1n[nH]c(=O)c3ccccc31)C2)c1cc2ccccn2n1` (stereo partly drawn) [Example 325, N-((aR)-6-(4-oxo-3,4-dihydrophthalazin-1-yl)spiro[3.3]heptan-2-yl)pyrazolo[1,5-a]pyridine-2-carboxamide], the IC50 lay within 5.1 to 15 nM.

Turning to `[H][C@]1(c2n[nH]c(=O)c3ccccc32)C[C@]2(C[C@@H](NC(=O)c3cc4ccccc4cn3)C2)C1` (stereo partly drawn) [Example 326, N-((aR)-6-(4-oxo-3,4-dihydrophthalazin-1-yl)spiro[3.3]heptan-2-yl)isoquinoline-3-carboxamide], the half-inhibitory concentration (IC50) fell in the range of 2.01 to 5 nM.

In the case of `[H][C@]1(c2n[nH]c(=O)c3ccccc32)C[C@]2(C[C@@H](NC(=O)c3cc4cccc(O)c4[nH]3)C2)C1` (stereo partly drawn) [Example 327, 7-hydroxy-N-((aR)-6-(4-oxo-3,4-dihydrophthalazin-1-yl)spiro[3.3]heptan-2-yl)-1H-indole-2-carboxamide], the IC50 fell in the range of 2.01 to 5 nM.

As for `[H][C@]1(c2n[nH]c(=O)c3ccccc32)C[C@]2(C[C@@H](NC(=O)c3cc4cccc(Cl)c4[nH]3)C2)C1` (stereo partly drawn) [Example 328, 7-chloro-N-((aR)-6-(4-oxo-3,4-dihydrophthalazin-1-yl)spiro[3.3]heptan-2-yl)-1H-indole-2-carboxamide], the IC50 fell in the range of 2.01 to 5 nM.

For the compound `[H][C@]1(c2n[nH]c(=O)c3ccccc32)C[C@]2(C[C@@H](NC(=O)c3cc4ccc(F)c(C)c4[nH]3)C2)C1` (stereo partly drawn) [Example 329, 6-fluoro-7-methyl-N-((aR)-6-(4-oxo-3,4-dihydrophthalazin-1-yl)spiro[3.3]heptan-2-yl)-1H-indole-2-carboxamide], the half-inhibitory concentration (IC50) was 0.2 to 2 nM.

Consider `[H][C@]1(c2n[nH]c(=O)c3ccccc32)C[C@]2(C[C@@H](NC(=O)c3ccc4ccccc4n3)C2)C1` (stereo partly drawn) [Example 330, N-((aR)-6-(4-oxo-3,4-dihydrophthalazin-1-yl)spiro[3.3]heptan-2-yl)quinoline-2-carboxamide], for which the IC50 was in the range of 15.1 to 100 nM.
